According to patent US6893829B2, “Human leukocyte 12-lipoxygenase and its role in the pathogenesis of disease states” (City of Hope, priority 1992, dated 2005):

How the values were obtained:
[1] = test system: 12-LO activity in HSMC; experiment: 12-HETE release and cell-associated 12-HETE in HSMC (HPLC/RIA); assay type: cell-based, human
Experimental: FIG. 3A illustrates the effect of AII on 12-HETE release by HSMC. HSMC were grown to confluency. Serum was removed and cells were incubated in media 199 containing 0.4% fetal bovine serum (FBS) and 0.2% BSA for 18 hours. Cells were then washed with DME media and incubated for 20 minutes in DME media containing 0.2% BSA. AII was added to the cells for five and ten minutes at the concentrations of 10^−9 and 10^−8 mol/L. Media were collected for HETE assay. • *p<0.05 vs control n=4
FIG. 3B illustrates the effect of AII on cell-associated 12-HETE levels in HSMC. After collecting supernatants, cells were washed with ice-cold PBS and harvested by scraping for the assay of cell-associated HETEs. • *p<0.02 vs control n=4
HSMC and HAEC monolayers were washed twice with ice-cold PBS and then processed for RNA extraction or western analysis as described below. For hydroxyeicosatetraenoic acid (HETE) assay, approximately 24 hours prior to an experiment, the medium was replaced with medium 199 containing 0.4% FBS and 0.2% BSA.
These assays were performed using previously published methods (10,11). Briefly, 12- and 15-HETE are extracted from supernatants and cells on C18 mini columns (Analytichem International, CA) and measured using our validated reverse phase gradient HPLC and (RIA) methods.
Another major aspect of this invention is the discovery that AII increases the activity and expression of 12-LO mRNA and protein in HSMC.

[2] = test system: leukocyte 12-LO mRNA in HSMC; experiment: 12-LO mRNA expression in HSMC (RT-PCR); assay type: cell-based, human; settings: AII 10^−7 mol/L
From the text: FIGS. 5A and 5B illustrate the regulation of leukocyte 12-LO mRNA levels by AII in HSMC using RT-PCR. FIG. 5A is the autoradiogram of the blot hybridized with 12-LO oligonucleotide probe. FIG. 5B is etidium bromide stained agarose gel. […] RNA samples were amplified for 40 cycles with leukocyte 12-LO primers or GAPDH primers.
Total RNA from cultured HSMC, HAEC and fresh MO was extracted with guanidiumthiocyanate-phenol-chloroform using RNAzol (Cinna/Biotecx Laboratories International Inc., Texas). Some RNA samples were treated by RNAse-free DNAse. 3 microgram of total RNA was mixed with the PCR buffer (10 mmol/L Tris-HCl, pH 8.3, 50 mmol/L KCl, 1.5 mmol/L MgCl2, and 0.001% gelatin), 200 μmol/L of each of the four deoxynucleotide triphosphates, 25 pmol each of 5′- and 3′-primers, 2 U Avian Myeloblastosis Virus reverse transcriptase (20 U/μl; Life Sciences, St. Petersburg, Fla.), and 2.5 U Taq polymerase (Perkin Elmer Cetus, Norwalk, Conn.) in a final vol of 50 μl. In some reactions, 5 pmol of each 5′- and 3′-primer of β2 macroglobulin or GAPDH were added as an internal standard. The samples were placed in a thermal cycler at 37° C. for eight minutes for the RT reaction to proceed. Then conditions used for PCR were a denaturation step at 94° C. for one-minute, annealing at 50° C. for two minutes, and extension at 72° C. for two minutes for 20-40 cycles. Blank reactions with no RNA template were carried out through the RT and PCR steps. […]
20 μl aliquots of the PCR products were subjected to electrophoresis in a 1.8% agarose gel in Tris acetate-EDTA buffer. […] Blots were quantitated using a computerized video densitometer.
In order to evaluate the specific expression and regulation of 12-LO mRNA in HSMC, applicants used a RT-PCR assay that exclusively amplifies the leucocyte type of 12-LO. […] When PCR conditions were used that were specific for either the platelet type 12-LO or human 15-LO no specific RNA band was detected (data not shown). […]

[3] = test system: ERK; experiment: ERK activity in CHO-AT1a cells; assay type: cell-based, Chinese hamster; settings: AII 10^−7M
Experimental: ERK activity was evaluated by the substrate-SDS-polyacrylamide gel method described in Anal. Biochem., 183:139-143 (1989). Confluent cells in […] were made quiescent in serum-free medium and then treated with agonists for various time periods. The cells were then lysed in lysis buffer (1% NP40, 1% sodium deoxycholate, 0.1% SDS, 100 mM NaCl, 50 mM Tris, 10 mM EDTA, 1 mM EGTA, aprotinin, […], 0.1 mM PMSF and 1 mM sodium orthovanadate, pH 7.4). Lysates were centrifuged to pellet nuclei and the cell extracts ([…]) were subjected to electrophoresis on SDS-polyacrylamide gels (10%) containing myelin basic protein (0.5 mg/ml) as an ERK substrate. The SDS was then washed, followed by denaturation, renaturation and protein phosphorylation on the gel with [^32P] ATP.
It has been discovered that the administration of AII results in biphasic activation of MAP kinase (all of the MAP kinase experiments were conducted in CHO-AT1a cells—AII receptor AT1a cDNA transfected Chinese hamster ovary cells).

## Angiotensin II (DRVYIHPF; Angiotensin-2; UniProt P01019 25-32, looked up) [AII, peptide hormone, added to cells as stimulus]
[1]; AII 10^−8M, 5 minute incubation, serum free media, control 599±105
  release of 12-HETE: 1467±277 pg per mg of protein
[1]; AII 10^−8 mol/L, ten minute incubation
  release of 12-HETE: significantly simulated the release of 12-HETE
[1]; AII 10^−9 mol/L, 5 minute incubation, serum free media, control 599±105
  release of 12-HETE: 1296±262 pg per mg of protein
[1]; HSMC, FIG. 3B
  cell-associated 12-HETE levels: significantly also increased
[2]
  incubation time at which 12-LO mRNA induction starts: 12 h
  incubation time of maximum 12-LO mRNA induction: 36 h
[2]; serum deprived HSMC
  leukocyte type 12-LO mRNA expression: markedly upregulated
[3]; 3-4.5 hours
  stimulation of ERK activity, later peak: 1.5-3 fold
[3]; 5 minutes
  stimulation of ERK activity, first peak: 2-6 fold
